Measured values: patent publication US20020137929A1, “1 - (3-heterocyclylphenyl) isothiourea, -isourea, -guanidine and -amidine herbicidal agents” (Intellectual Property Department, BASF Aktiengesellschaft, priority 1998, published 2002)

How the values were obtained:
ZEAMX (Corn, Field) = experiment: Postemergence herbicidal evaluation; format: in vivo, Zea mays; conditions: for ZEAMX herbicidal rating: postemergence
Method in brief: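 Herbicidal effect was judged by eye on a 0–9 scale covering stand, vigor, deformity, size and chlorosis, compared with controls, four to five weeks after seedlings about two weeks old were sprayed (40 psi, ~0.0156–0.500 kg/ha).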

ABUTH (Velvetleaf) = experiment: Preemergence herbicidal evaluation; format: in vivo, Abutilon theophrasti; conditions: rated 4-5 weeks after treatment
Method in brief: (§1)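 In this greenhouse assay, monocot and dicot seeds are planted in soil and treated prior to emergence with an aqueous acetone spray (about 0.0156-0.500 kg/ha). Plants are assessed visually against control on a 0-9 scale after 4-5 weeks.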

AMBEL (Ragweed, Common) = experiment: Preemergence herbicidal evaluation; format: in vivo, Ambrosia artemisifolia; conditions: rated 4-5 weeks after treatment
Method in brief: as §1

[1] = test system: GLXMAW (Soybean, Williams); experiment: Preemergence herbicidal evaluation; format: in vivo, Glycine max, (L.) Merr. cv Williams; conditions: rated 4-5 weeks after treatment
Method in brief: as §1

ORYSAT (Rice, Tebonnet) [2] = experiment: Rice tolerance to post-transplant applications, flooded paddy conditions (Table III); format: in vivo, Oryza sativa, (L.) Tebonnet; conditions: in vivo
Method in brief: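 Two ten-day-old Tebonnet seedlings transplanted into flooded silt loam (water 1.5 to 3 cm above soil); three days later the water surface was treated with compound in aqueous/acetone 50/50 at about 0.0313 to 0.500 kg/ha. Visual 0-9 injury rating versus control after three to four weeks in greenhouse.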

MOOVA (Monochoria) = experiment: Postemergence weed control under flooded paddy conditions; format: in vivo, Monochoria vaginalis; conditions: postemergence weeds
Method in brief: (§2)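 With weeds 3 to 5 cm tall and rice at the 1.5 to 2.5 leaf stage, containers were flooded and water held 1.5 to 3 cm above soil. Compounds in 50/50 v/v aqueous/acetone went into the flood water at about 0.0313 to 0.500 kg/ha a.i. Effects were visually rated 0–9 against controls after three to four weeks in the greenhouse.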

[3] = test system: SAGPY (Arrowhead (Pygmaea)); experiment: as above; format: in vivo, Sagittaria pygmaea; conditions: postemergence weeds
Method in brief: as §2

ORYSAT (Rice, Tebonnet) [4] = experiment: Rice tolerance to post-transplant applications, flooded paddy conditions (Table IV); format: in vivo, Oryza sativa, (L.) Tebonnet; conditions: in vivo
Description: Results of herbicide evaluation are expressed on a rating scale (0-9). The scale is based upon a visual observation of plant stand, vigor, malformation, size, chlorosis and overall plant appearance as compared with a control.
Plastic containers containing weeds which are 3 to 5 cm tall and rice seedlings at the 1.5 to 2.5 leaf stage are flooded with water. The water is maintained at 1.5 to 3 cm above the soil surface for the duration of the experiment. Test compounds are applied as aqueous/ acetone mixtures 50/50 v/v directly into the flood water to provide the equivalent of about 0.0313 to 0.500 kg/ha of active ingredient. The treated containers are placed on greenhouse benches and cared for in accordance with conventional greenhouse procedures. Three to four weeks after treatment, the test is terminated and each container is examined and herbicidal effect rated according to the rating system provided in Example 37. The compounds evaluated are reported by compound number given in Example 37.

[5] = rate 0.0313 kg/ha, 3-4 weeks after treatment
[6] = rate 0.0625 kg/ha, 3-4 weeks after treatment
[7] = rate 0.1250 kg/ha, 3-4 weeks after treatment
[8] = rate 0.2500 kg/ha, 3-4 weeks after treatment
[9] = Rate 0.2500 kg/ha, rated 3 to 4 weeks after treatment

| SMILES | Herbicidal rating ORYSAT (rice tolerance) (ORYSAT (Rice, Tebonnet) [2]) | Herbicidal rating MOOVA (MOOVA (Monochoria); [6]) | Herbicidal rating MOOVA (MOOVA (Monochoria); [7]) | Herbicidal rating MOOVA (MOOVA (Monochoria); [8]) | Herbicidal rating SAGPY [3, 6] | Herbicidal rating SAGPY [3, 7] | Herbicidal rating SAGPY [3, 8] | Herbicidal rating ORYSAT (rice tolerance) (ORYSAT (Rice, Tebonnet) [4]) | Postemergence herbicidal rating ZEAMX (ZEAMX (Corn, Field); Rate 0.0158 kg/ha) | Postemergence herbicidal rating ZEAMX (ZEAMX (Corn, Field); Rate 0.0315 kg/ha) | Postemergence herbicidal rating ZEAMX (ZEAMX (Corn, Field); Rate 0.0630 kg/ha) | Preemergence herbicidal rating ABUTH (ABUTH (Velvetleaf); rate 0.1250 kg/ha) | Preemergence herbicidal rating ABUTH (ABUTH (Velvetleaf); rate 0.2500 kg/ha) | Preemergence herbicidal rating AMBEL (AMBEL (Ragweed, Common); rate 0.1250 kg/ha) | Preemergence herbicidal rating AMBEL (AMBEL (Ragweed, Common); rate 0.2500 kg/ha) | Preemergence herbicidal rating GLXMAW ([1]; rate 0.1250 kg/ha) | Preemergence herbicidal rating GLXMAW ([1]; rate 0.2500 kg/ha) | other results |
| --- | --- | --- | --- | --- | --- | --- | --- | --- | --- | --- | --- | --- | --- | --- | --- | --- | --- | --- |
| CCOC(=O)CN1C(=O)C(Cc2ccccc2)SC1=Nc1cc(-n2c(=O)cc(C(F)(F)F)n(C)c2=O)c(F)cc1Cl (stereo not shown) [Compound 24, Ethyl 5-benzyl-2-{{2-chloro-5-[3,6-dihydro-3-methyl-2,6-dioxo-4-(trifluoromethyl)-1(2H)-pyrimidinyl]-4-fluorophenyl}imino}-4-oxo-3-thiazolidineacetate] | 0.0 | 9.0 | 9.0 | 9.0 | 0.0 | 0.0 | 0.0 | 0.0 |  |  |  |  |  |  |  |  |  | ZEAMX herbicidal rating (ZEAMX (Corn, Field); rate 0.0158 kg/ha): 4.0; ZEAMX herbicidal rating (ZEAMX (Corn, Field); rate 0.0315 kg/ha): 4.5; ZEAMX herbicidal rating (ZEAMX (Corn, Field); rate 0.0630 kg/ha): 5.5; ABUTH preemergence herbicidal rating (ABUTH (Velvetleaf); rate 0.0625 kg/ha): 4.0; ABUTH preemergence herbicidal rating (ABUTH (Velvetleaf); rate 0.1250 kg/ha): 9.0; ABUTH preemergence herbicidal rating (ABUTH (Velvetleaf); rate 0.2500 kg/ha): 9.0; AMBEL preemergence herbicidal rating (AMBEL (Ragweed, Common); rate 0.0625 kg/ha): 0.0; AMBEL preemergence herbicidal rating (AMBEL (Ragweed, Common); rate 0.1250 kg/ha): 0.0; AMBEL preemergence herbicidal rating (AMBEL (Ragweed, Common); rate 0.2500 kg/ha): 2.0; GLXMAW preemergence herbicidal rating ([1]; rate 0.0625 kg/ha): 0.0; GLXMAW preemergence herbicidal rating ([1]; rate 0.1250 kg/ha): 0.0; GLXMAW preemergence herbicidal rating ([1]; rate 0.2500 kg/ha): 0.0; Herbicidal rating MOOVA (MOOVA (Monochoria); [5]): 0.0; Herbicidal rating SAGPY [3, 5]: 0.0 |
| C[C@@H](C(=O)O)N1C(=O)CS/C1=N/c1cc(-n2c(=O)cc(C(F)(F)F)n(C)c2=O)c(F)cc1Cl [Compound 51, 2-{{2-Chloro-5-[3,6-dihydro-3-methyl-2,6-dioxo-4-(trifluoromethyl)-1(2H)-pyrimidinyl]-4-fluoro-phenyl}imino}-α-methyl-4-oxo-3-thiazolidineacetic acid, L-] | 0.0 | 3.0 | 4.0 | 4.0 | 0.0 | 0.0 | 0.0 | 0.0 | 7.0 | 7.5 | 7.5 | 7.0 | 9.0 | 9.0 | 9.0 | 1.0 | 7.0 | Preemergence herbicidal rating ABUTH (ABUTH (Velvetleaf); rate 0.0156 kg/ha): 9.0; Preemergence herbicidal rating ABUTH (ABUTH (Velvetleaf); rate 0.0313 kg/ha): 9.0; Preemergence herbicidal rating ABUTH (ABUTH (Velvetleaf); rate 0.0625 kg/ha): 9.0; Preemergence herbicidal rating AMBEL (AMBEL (Ragweed, Common); rate 0.0156 kg/ha): 0.0; Preemergence herbicidal rating AMBEL (AMBEL (Ragweed, Common); rate 0.0313 kg/ha): 0.0; Preemergence herbicidal rating AMBEL (AMBEL (Ragweed, Common); rate 0.0625 kg/ha): 4.0; Preemergence herbicidal rating GLXMAW ([1]; rate 0.0156 kg/ha): 0.0; Preemergence herbicidal rating GLXMAW ([1]; rate 0.0313 kg/ha): 0.0; Preemergence herbicidal rating GLXMAW ([1]; rate 0.0625 kg/ha): 1.0 |
| Cn1c(C(F)(F)F)cc(=O)n(-c2cc(/N=C3/SC(CC(=O)O)C(=O)N3CC(=O)O)c(Cl)cc2F)c1=O (stereo not shown) [Compound 61, 2-{{2-Chloro-5-[3,6-dihydro-3-methyl-2,6-dioxo-4-(trifluoromethyl)-1(2H)-pyrimidinyl]-4-fluorophenyl}imino}-4-oxo-3,5-thiazolidinediacetic acid] |  |  |  |  |  |  |  | 0.0 | 2.0 | 2.0 | 3.0 | 0.0 | 1.0 | 0.0 | 0.0 | 0.0 | 1.0 | ORYSAT herbicidal effect rating (rice tolerance) (ORYSAT (Rice, Tebonnet) [2]): 0.0; Herbicidal rating MOOVA (MOOVA (Monochoria); [9]): 0.0; Herbicidal rating SAGPY [3, 9]: 0.0 |
